We go through 13 compounds from ChEMBL document CHEMBL1136728, “Antitumor activity of novel deoxoartemisinin monomers, dimers, and trimer” (J Med Chem, 2003).

What all share (assay type): functional, cell-based
One assay concerns MCF7. Description: In vitro cytotoxicity of compound against MCF7, human breast cancer was defined by microculture tetrazolium assay.
Another assay concerns HT-29. Description: In vitro cytotoxicity of compound against HT29, human colorectal adenocarcinoma was defined by microculture tetrazolium assay.
For another assay, the system named is P388. Description: In vitro cytotoxicity of compound against P388, mouse […] leukemia was defined by microculture tetrazolium assay.
The next assay has as its system EL4. Description: In vitro cytotoxicity of compound against EL4, mouse thymoma was defined by microculture tetrazolium assay.
Another assay deals with BeWo. The assay is described as follows: In vitro cytotoxicity of compound against Bewo, human choriocarcinoma was defined by microculture tetrazolium assay.

Converted amounts (≈) assume the structure as drawn.

As usually defined, the IC50 is the point on the concentration scale where inhibition reaches its midpoint. Lower therefore signals greater potency in that assay. On to `C[C@H]1[C@@H](CCNC(=O)CC[C@H](N)C(=O)NCC[C@H]2O[C@@H]3O[C@]4(C)CC[C@H]5[C@H](C)CC[C@@H]([C@H]2C)[C@]35OO4)O[C@@H]2O[C@]3(C)CC[C@H]4[C@H](C)CC[C@@H]1[C@]24OO3`, for which the IC50 with MCF7 is 15.3 µg/mL (≈ 20.8 µM); in the assay with HT-29, 6.5 µg/mL (≈ 8.86 µM); in the assay with P388, 15.6 µg/mL (≈ 21.3 µM); in the assay on EL4, 16.5 µg/mL (≈ 22.5 µM); in the assay with BeWo it was above 20 µg/mL.
For the compound `COc1cccc2c1C(=O)c1c(O)c3c(c(O)c1C2=O)C[C@@](O)(C(=O)CO)C[C@@H]3O[C@H]1C[C@H](N)[C@H](O)[C@H](C)O1` [DOXORUBICIN], the IC50 in the assay on HT-29 amounted to 0.1 µg/mL (≈ 0.184 µM); in the assay on P388, 0.39 µg/mL (≈ 0.718 µM); in the assay with EL4, 0.67 µg/mL (≈ 1.23 µM); in the assay with BeWo, 6.24 µg/mL (≈ 11.5 µM).
As to `C[C@H]1[C@@H](CCC(=O)N[C@@H](CCC(=O)O)C(=O)O)O[C@@H]2O[C@]3(C)CC[C@H]4[C@H](C)CC[C@@H]1[C@]24OO3`, the IC50 with MCF7 is 13.4 µg/mL (≈ 28.5 µM); in the assay on HT-29 it was 8.6 µg/mL (≈ 18.3 µM); with P388, above 20 µg/mL; in the assay with EL4, above 20 µg/mL; with BeWo it was above 20 µg/mL.
On to `CO[C@@]12[C@H](COC(N)=O)C3=C(C(=O)C(C)=C(N)C3=O)N1C[C@@H]1N[C@@H]12` [MITOMYCIN], for which the IC50 amounted to 0.93 µg/mL (≈ 2.78 µM) in the assay on MCF7; 0.02 µg/mL (≈ 0.0598 µM) in the assay with HT-29; 1.5 µg/mL (≈ 4.49 µM) in the assay on P388; 3.94 µg/mL (≈ 11.8 µM) with EL4; 0.85 µg/mL (≈ 2.54 µM) with BeWo.
Taken in the same sequence, the figures for `C[C@H]1[C@@H](CCNC(=O)CC[C@H](NC(=O)CC[C@H]2O[C@@H]3O[C@]4(C)CC[C@H]5[C@H](C)CC[C@@H]([C@H]2C)[C@]35OO4)C(=O)NCC[C@H]2O[C@@H]3O[C@]4(C)CC[C@H]5[C@H](C)CC[C@@H]([C@H]2C)[C@]35OO4)O[C@@H]2O[C@]3(C)CC[C@H]4[C@H](C)CC[C@@H]1[C@]24OO3` were 0.017 µg/mL (≈ 0.0161 µM), 0.09 µg/mL (≈ 0.0852 µM), 0.12 µg/mL (≈ 0.114 µM), 1.07 µg/mL (≈ 1.01 µM) and 18.3 µg/mL (≈ 17.3 µM).
The corresponding values for `C[C@H]1[C@@H](CCS(=O)(=O)CC[C@H]2O[C@@H]3O[C@]4(C)CC[C@H]5[C@H](C)CC[C@@H]([C@H]2C)[C@]35OO4)O[C@@H]2O[C@]3(C)CC[C@H]4[C@H](C)CC[C@@H]1[C@]24OO3` are 0.025 µg/mL (≈ 0.0382 µM), 0.38 µg/mL (≈ 0.58 µM), 5.6 µg/mL (≈ 8.55 µM), 0.54 µg/mL (≈ 0.825 µM) and 1.04 µg/mL (≈ 1.59 µM).
Regarding `CC(=O)O[C@H]1C(=O)[C@@]2(C)[C@H]([C@H](OC(=O)c3ccccc3)[C@]3(O)C[C@H](OC(=O)[C@H](O)[C@@H](NC(=O)c4ccccc4)c4ccccc4)C(C)=C1C3(C)C)[C@]1(OC(C)=O)CO[C@@H]1C[C@@H]2O` [PACLITAXEL], the IC50 in the assay with HT-29 stood at 0.01 µg/mL (≈ 0.0117 µM); in the assay with P388, 2.27 µg/mL (≈ 2.66 µM); in the assay with EL4 it was 1.34 µg/mL (≈ 1.57 µM); with BeWo, 7.39 µg/mL (≈ 8.65 µM).
As for `C[C@H]1[C@@H](CCNC(=O)CC[C@H]2O[C@@H]3O[C@]4(C)CC[C@H]5[C@H](C)CC[C@@H]([C@H]2C)[C@]35OO4)O[C@@H]2O[C@]3(C)CC[C@H]4[C@H](C)CC[C@@H]1[C@]24OO3`, the IC50 in the assay on MCF7 turned out to be 0.005 µg/mL (≈ 0.00789 µM); in the assay on HT-29, 0.69 µg/mL (≈ 1.09 µM); in the assay on P388 it was 10.4 µg/mL (≈ 16.4 µM); in the assay on EL4, 6.29 µg/mL (≈ 9.92 µM); with BeWo it was 7.5 µg/mL (≈ 11.8 µM).
As to `C[C@H]1[C@@H](CCCCN=[N+]=[N-])O[C@@H]2O[C@]3(C)CC[C@H]4[C@H](C)CC[C@@H]1[C@]24OO3`, the IC50 in the assay on MCF7 was 11.6 µg/mL (≈ 31.7 µM); with HT-29, 2.76 µg/mL (≈ 7.55 µM); with P388, 10.3 µg/mL (≈ 28.2 µM); with EL4 it was 1.61 µg/mL (≈ 4.41 µM); in the assay with BeWo, above 20 µg/mL.
Taken in the same sequence, the figures for `C[C@H]1[C@@H](CCS(=O)(=O)CCCS(=O)(=O)CC[C@H]2O[C@@H]3O[C@]4(C)CC[C@H]5[C@H](C)CC[C@@H]([C@H]2C)[C@]35OO4)O[C@@H]2O[C@]3(C)CC[C@H]4[C@H](C)CC[C@@H]1[C@]24OO3` were 5.6 µg/mL (≈ 7.36 µM), 0.38 µg/mL (≈ 0.499 µM), 8.4 µg/mL (≈ 11 µM), 10 µg/mL (≈ 13.1 µM) and 8.5 µg/mL (≈ 11.2 µM).
Taken in the same sequence, the figures for `C[C@H]1[C@@H](CCSCC[C@H]2O[C@@H]3O[C@]4(C)CC[C@H]5[C@H](C)CC[C@@H]([C@H]2C)[C@]35OO4)O[C@@H]2O[C@]3(C)CC[C@H]4[C@H](C)CC[C@@H]1[C@]24OO3` were 0.017 µg/mL (≈ 0.0273 µM), 0.24 µg/mL (≈ 0.385 µM), 0.4 µg/mL (≈ 0.642 µM), 0.23 µg/mL (≈ 0.369 µM) and 14.2 µg/mL (≈ 22.8 µM).
As to `C[C@H]1[C@@H](CCCCNC(=O)CC[C@H]2O[C@@H]3O[C@]4(C)CC[C@H]5[C@H](C)CC[C@@H]([C@H]2C)[C@]35OO4)O[C@@H]2O[C@]3(C)CC[C@H]4[C@H](C)CC[C@@H]1[C@]24OO3`, the IC50 in the assay on MCF7 is above 20 µg/mL; in the assay on HT-29, 20.2 µg/mL (≈ 30.5 µM); with P388 it was above 20 µg/mL; with EL4, above 20 µg/mL; with BeWo, above 20 µg/mL.
For `C[C@H]1[C@@H](CCCCN)O[C@@H]2O[C@]3(C)CC[C@H]4[C@H](C)CC[C@@H]1[C@]24OO3`, the IC50 in the assay with MCF7 was 0.02 µg/mL (≈ 0.0589 µM); with HT-29 it was 2.2 µg/mL (≈ 6.48 µM); with P388 it was 6.18 µg/mL (≈ 18.2 µM); in the assay with EL4, 5.63 µg/mL (≈ 16.6 µM); with BeWo, above 20 µg/mL.
